How the values were obtained:
B.st. spores [1] = assay: Single service kidney swab microbial growth inhibition test, culture of Example 1, with or without beta-lactam receptor; type: cell-based, Bacillus (Geobacillus) Stearothermophilus; conditions: for test result With receptor: with 1 U receptor
Protocol: A Bromocresol purple (BCP)/Tris Solution was prepared by combining 25 mL of a Trizma Base solution (TBS), the solution including 2.5 grams Trizma Base in 100 mL of reverse osmosis/deionized water (RO/DI Water), with 100 milligrams of BCP and mixing well. The media was prepared by dissolving 5 grams glucose and 1 gram Mueller Hinton Broth (Mueller Hinton broth includes, in purified filtered water, 2 grams per liter (g/L) beef extract, 17.5 g/L casein hydrolysate acid and 1.5 g/L starch, pH 7.3 at 25 degrees C) into 100 mL RO/DI Water. Then a 0.01 mg/mL solution of trimethoprim in RO/DI Water was prepared and 1.2 mL was added to the media. Next 20 mL of BCP/Tris (sterile filtered through 0.45 micron filter) was added to the media.
(§1) Agar was prepared by combining 0.3 grams Difco Bacto-Agar (Item #0140-01), 0.225 NaCl and 17.485 RO/DI Water. The mixture was heated to 95° C. and then removed from the heat and allowed to cool to 75° C. Next 6 mL of media (prepared as described above with BCP/Tris) was added to the agar and mixed for 5 minutes. The mixture was cooled to 57° C. and 1 mL spore solution (concentration of 1 billion cfu/mL) was added and mixed together for 5 minutes. 0.200 mL was dispensed into the bottom of a vial 4.
The dispensed vial 4 was prepared as described in example 1. An extractant was prepared by adding 4.8 grams of 47.2% Trizma Base and 52.5% Potassium Phosphate Monobasic to 1000 mL RO/DI Water (pH should be 7.5+/−0.10). The extractant was sealed within the niblet 5 and the niblet was added to the vial 4. The vial 4 was heat sealed with foil.
The single service kidney swab procedure was run by first making a 3 inch incision into kidney. The swab 1 was then withdrawn from the test unit, the test unit in the form of a POCKETSWAB, by gently pulling and twisting the handle 2 out of the test unit body 7. The swab 1 was then inserted into the incision of the kidney and allowed to sit for 15 minutes to allow full absorption of liquid into the swab 1. The swab 1 was reinserted by gently pushing down and twisting to engage the threads 6 and screwing the handle down slowly about halfway. The swab tip 3 punctured the seals 12, 13 & 14 immersing the swab tip 3 into the extractant within the niblet 5 where it sat for 2 minutes. The swab 1 was then screwed down all the way. After shaking and tapping the vial 4 to get residual liquid into the bottom of the vial 4 and in contact with the culture 15, we placed the vial 4 into a heat block set at 67° C. and incubated for 2.5 hours (if urine is tested instead of kidney, incubate for 4 hours).
Culture is prepared as in Example 1. Prior to dispensing 200 microliters into the vial 4, antibiotic binder is prepared, in this example an antibiotic binder from the cell wall of B.st., also known as receptor. Varying amounts of inhibitory receptor units are mixed into the culture. Receptor is defined as protein removed from cellular membrane of B.st. A receptor unit (1 U) is the amount of receptor that will, in the test, reverse the culture growth inhibition of 12.5 ppb of penicillin G.
Results in Table 1 are from tests using the culture described in Example 1 and with the addition of receptor added into rinse buffer (rinse buffer composition is 4.8 grams of 47.2% Trizma Base and 52.5% Potassium Phosphate Monobasic to 1000 mL RO/DI Water) at 0, 0.3 units (U), 1.0 U, 2.0 U, 5.0 Upper test. Sample contained the following amounts of penicillin G: 0, 5 parts per billion (ppb), 10 ppb, 12.5 ppb, 25 ppb and 50 ppb. As shown, 1.0 U was able to reverse the result of a 12.5 ppb penicillin G sample. Results are either positive (+) or negative (−).
Results are either positive (+), negative (−) or borderline between positive and negative (+/−). Abbreviations are penicillin G (PenG); sulfamethazine (SMZ); sulfadimethoxine (SDM); tylosin (TY); gentamicin (G); oxytetracycline (OT). […]

B.st. spores [2] = assay: Antibiotic detection test in spiked milk, borate/succinate culture of Example 6 (Table 4); type: cell-based, Bacillus (Geobacillus) Stearothermophilus; parameters: key to Color 1 / Color 2: Color result 1 and 2 is a negative result; Color result 1 and 2 is a negative result; 3 is a borderline result; 4 and 5 is a positive result; 4 and 5 is a positive result; conditions: for % Pos (Color 2) / Color 2: after 16 hours at room temperature; for % Pos (Color 1) / Color 1: immediately after test completion
Protocol: BCP/Borate/Succinate Solution was prepared by adding 3.8 grams of Borate and 6 grams Succinate to 100 mL of reverse osmosis/deionized water (RO/DI Water) in 125 mL flask. 50 milligrams of BCP was added to a 50 mL conical tube and 5 mL of Borate/Succinate solution was added to the 50 milligrams BCP and mixed.
To prepare media 5 grams glucose and 1 gram Mueller Hinton Broth was dissolved in 100 mL RO/DI Water. 1.2 mL of a 0.01 mg/mL solution of trimethoprim in RO/DI Water was prepared and added to the media. A 20 mL of BCP/Borate/Succinate was added to the media and the media was sterile filtered through a 0.45 micron filter and then cooled to 4 degrees C.
as §1, with “each of the vials.” for “a vial 4.”
In test operation 200 microliters of various milk sample, spiked with known concentrations of antibiotics, were pipetted into test vials and incubated for the prescribed time (in this test 2 hours 10 minutes) and prescribed temperature (64 degrees C.+/−2 degrees C.). Incubation was in the Charm I Inctronic incubator. Results were recorded immediately after test completion (Color 1) and after being left at room temperature for 16 hours (Color 2). Results listed are in parts per billion (ppb). 4 samples were run at each concentrations except for raw negative milk (16 samples) and 3 ppb pen G (2 samples) and amoxicillin (2 samples). Abbreviations are penicillin G (PenG); sulfamethazine (SMZ); sulfadimethoxine (SDM); tylosin (TY); gentamicin (G); oxytetracycline (OT); pirlimycin (Pirl); amoxicillin (Amox); ampicillin (Amp); cloxacillin (Clox); ceftiofur sodium (Ceft); cephaprin (Ceph); tilmicosin (Til); sulfadoxine (SDN); neomycin (Neo). Color result 1 and 2 is a negative result, 3 is a borderline result and 4 and 5 is a positive result.

[3] = drug concentration 300 (unit not given)
[4] = drug concentration 500 (unit not given)
[5] = drug concentration 800 (unit not given)
[6] = drug concentration 400 (unit not given)
[7] = drug concentration 600 (unit not given)

COc1cc(NS(=O)(=O)c2ccc(N)cc2)nc(OC)n1 [SDM, sulfadimethoxine]
5: Color 2 (B.st. spores [2]; milk spiked at 25 ppb) | Color 2 (B.st. spores [2]; milk spiked at 50 ppb) | Color 1 (B.st. spores [2]; milk spiked at 50 ppb)
100%: % Pos (Color 2) (B.st. spores [2]; milk spiked at 25 ppb) | % Pos (Color 1) (B.st. spores [2]; milk spiked at 25 ppb) | % Pos (Color 2) (B.st. spores [2]; milk spiked at 50 ppb) | % Pos (Color 1) (B.st. spores [2]; milk spiked at 50 ppb)
4: Color 1 (B.st. spores [2]; milk spiked at 25 ppb)
+/−: test result w/out receptor (B.st. spores [1]; drug 50 ppb) | test result With receptor (B.st. spores [1]; drug 50 ppb) | test result w/out receptor (B.st. spores [1]; drug 100 ppb) | test result With receptor (B.st. spores [1]; drug 100 ppb)
+: test result w/out receptor (B.st. spores [1]; drug 200 ppb) | test result With receptor (B.st. spores [1]; drug 200 ppb)

CC1(C)S[C@@H]2[C@H](NC(=O)Cc3ccccc3)C(=O)N2[C@H]1C(=O)O [PenG, penicillin G]
−: test result (B.st. spores [1]; 12.5 ppb penicillin G, Receptor added to buffer) | test result (B.st. spores [1]; 12.5 ppb penicillin G, Receptor added to culture surface) | test result (B.st. spores [1]; 12.5 ppb penicillin G, Receptor mixed in culture) | test result With receptor (B.st. spores [1]; drug 12.5 ppb) | test result (B.st. spores [1]; penicillin G 5 ppb in sample, receptor 0.3 U per test in rinse buffer) | test result (B.st. spores [1]; penicillin G 5 ppb in sample, receptor 1.0 U per test in rinse buffer) | test result (B.st. spores [1]; penicillin G 5 ppb in sample, receptor 2.0 U per test in rinse buffer) | test result (B.st. spores [1]; penicillin G 5 ppb in sample, receptor 5.0 U per test in rinse buffer) | test result (B.st. spores [1]; penicillin G 10 ppb in sample, receptor 0.3 U per test in rinse buffer) | test result (B.st. spores [1]; penicillin G 10 ppb in sample, receptor 1.0 U per test in rinse buffer) | test result (B.st. spores [1]; penicillin G 10 ppb in sample, receptor 2.0 U per test in rinse buffer) | test result (B.st. spores [1]; penicillin G 10 ppb in sample, receptor 5.0 U per test in rinse buffer) | test result (B.st. spores [1]; penicillin G 12.5 ppb in sample, receptor 1.0 U per test in rinse buffer) | test result (B.st. spores [1]; penicillin G 12.5 ppb in sample, receptor 2.0 U per test in rinse buffer) | test result (B.st. spores [1]; penicillin G 12.5 ppb in sample, receptor 5.0 U per test in rinse buffer)
reduced by varying amounts: test sensitivity to penicillin G (B.st. spores [1]; beta-lactam receptor 0.3 units to 5.0 units added to the top of the culture)
100%: % Pos (Color 2) (B.st. spores [2]; milk spiked at 3 ppb) | % Pos (Color 1) (B.st. spores [2]; milk spiked at 3 ppb) | % Pos (Color 2) (B.st. spores [2]; milk spiked at 4 ppb) | % Pos (Color 1) (B.st. spores [2]; milk spiked at 4 ppb)
+: test result (B.st. spores [1]; 12.5 ppb penicillin G, Control - no receptor) | test result (B.st. spores [1]; 50 ppb penicillin G, Control - no receptor) | test result (B.st. spores [1]; 50 ppb penicillin G, Receptor added dried on swab) | test result (B.st. spores [1]; 50 ppb penicillin G, Receptor added to buffer) | test result (B.st. spores [1]; 50 ppb penicillin G, Receptor added to culture surface) | test result w/out receptor (B.st. spores [1]; drug 12.5 ppb) | test result w/out receptor (B.st. spores [1]; drug 25 ppb) | test result With receptor (B.st. spores [1]; drug 25 ppb) | test result (B.st. spores [1]; penicillin G 5 ppb in sample, receptor 0 U per test in rinse buffer) | test result (B.st. spores [1]; penicillin G 10 ppb in sample, receptor 0 U per test in rinse buffer) | test result (B.st. spores [1]; penicillin G 12.5 ppb in sample, receptor 0 U per test in rinse buffer) | test result (B.st. spores [1]; penicillin G 12.5 ppb in sample, receptor 0.3 U per test in rinse buffer) | test result (B.st. spores [1]; penicillin G 25 ppb in sample, receptor 0 U per test in rinse buffer) | test result (B.st. spores [1]; penicillin G 25 ppb in sample, receptor 0.3 U per test in rinse buffer) | test result (B.st. spores [1]; penicillin G 25 ppb in sample, receptor 1.0 U per test in rinse buffer) | test result (B.st. spores [1]; penicillin G 25 ppb in sample, receptor 2.0 U per test in rinse buffer) | test result (B.st. spores [1]; penicillin G 25 ppb in sample, receptor 5.0 U per test in rinse buffer) | test result (B.st. spores [1]; penicillin G 50 ppb in sample, receptor 0 U per test in rinse buffer) | test result (B.st. spores [1]; penicillin G 50 ppb in sample, receptor 0.3 U per test in rinse buffer) | test result (B.st. spores [1]; penicillin G 50 ppb in sample, receptor 1.0 U per test in rinse buffer) | test result (B.st. spores [1]; penicillin G 50 ppb in sample, receptor 2.0 U per test in rinse buffer) | test result (B.st. spores [1]; penicillin G 50 ppb in sample, receptor 5.0 U per test in rinse buffer)
5: Color 2 (B.st. spores [2]; milk spiked at 3 ppb) | Color 1 (B.st. spores [2]; milk spiked at 3 ppb) | Color 2 (B.st. spores [2]; milk spiked at 4 ppb) | Color 1 (B.st. spores [2]; milk spiked at 4 ppb)

CC[C@H]1OC(=O)C[C@@H](O)[C@H](C)[C@@H](O[C@@H]2O[C@H](C)[C@@H](O[C@H]3C[C@@](C)(O)[C@@H](O)[C@H](C)O3)[C@H](N(C)C)[C@H]2O)[C@@H](CC=O)C[C@@H](C)C(=O)/C=C/C(C)=C/[C@@H]1CO[C@@H]1O[C@H](C)[C@@H](O)[C@@H](OC)[C@H]1OC [TY, tylosin]
100%: % Pos (Color 2) (B.st. spores [2]; milk spiked at 40 ppb) | % Pos (Color 1) (B.st. spores [2]; milk spiked at 40 ppb) | % Pos (Color 2) (B.st. spores [2]; milk spiked at 50 ppb) | % Pos (Color 1) (B.st. spores [2]; milk spiked at 50 ppb)
5: Color 1 (B.st. spores [2]; milk spiked at 40 ppb) | Color 2 (B.st. spores [2]; milk spiked at 50 ppb) | Color 1 (B.st. spores [2]; milk spiked at 50 ppb)
+/−: test result w/out receptor (B.st. spores [1]; [3]) | test result With receptor (B.st. spores [1]; [3])
4: Color 2 (B.st. spores [2]; milk spiked at 40 ppb)
+: test result w/out receptor (B.st. spores [1]; [4]) | test result With receptor (B.st. spores [1]; [4]) | test result w/out receptor (B.st. spores [1]; [5]) | test result With receptor (B.st. spores [1]; [5])

gentamicin
5: Color 2 (B.st. spores [2]; milk spiked at 400 ppb) | Color 1 (B.st. spores [2]; milk spiked at 400 ppb)
+/−: test result w/out receptor (B.st. spores [1]; [6]) | test result With receptor (B.st. spores [1]; [6]) | test result w/out receptor (B.st. spores [1]; [7]) | test result With receptor (B.st. spores [1]; [7]) | test result w/out receptor (B.st. spores [1]; [5]) | test result With receptor (B.st. spores [1]; [5])
4: Color 2 (B.st. spores [2]; milk spiked at 300 ppb) | Color 1 (B.st. spores [2]; milk spiked at 300 ppb)
100%: % Pos (Color 2) (B.st. spores [2]; milk spiked at 300 ppb) | % Pos (Color 1) (B.st. spores [2]; milk spiked at 300 ppb) | % Pos (Color 2) (B.st. spores [2]; milk spiked at 400 ppb) | % Pos (Color 1) (B.st. spores [2]; milk spiked at 400 ppb)

Reference: patent US8476064B2, “Inhibition assay method and device for detection of antibiotics” (Charm Sciences, Inc., priority 2006, dated 2013)
